Data published in patent publication US20240254109A1, “SALT CONTAINING PIPERAZINE POLYCYCLIC DERIVATIVE, CRYSTAL FORM THEREOF, PREPARATION METHOD THEREFOR, AND USE THEREOF” (Shanghai Hansoh Biomedical Co., Ltd., priority 2021, published 2024).

Experiments:
[1] = Pharmacokinetic assay in Balb/c mice (plasma and brain tissue); format: in vivo; conditions: p.o. 5 mg/kg
Procedure: (III). Pharmacokinetic Assay in Balb/c Mice
Balb/c mice were used as test animals. The pharmacokinetic behavior in mouse body (plasma and brain tissue) of the compounds of Examples of the present invention was studied at an oral administration dose of 5 mg/kg.
Male Balb/c mice (12 mice per group), purchased from Shanghai Jiesijie Laboratory Animal Co., LTD, with Certificate No.: SCXK (Shanghai) 2013-0006 N0.311620400001794.
The test compound was dissolved in 0.5% CMC-Na (1% Tween80) by sonication to formulate a clear solution or homogeneous suspension.
After an overnight fast, male Balb/c mice (12 mice per group) were administered p.o. with the test compound at an administration dose of 5 mg/kg and an administration volume of 10 mL/kg.
0.2 mL of blood was taken from the heart of the mouse before administration and at 1, 2, 4, 8 and 24 hours after administration, and the mice were sacrificed with CO2. The samples were stored in EDTA-K2 tubes, and centrifuged for 6 minutes at 4° C., 6000 rpm to separate the plasma. The plasma samples were stored at −80° C. Whole brain tissue was taken out, weighed, placed in a 2 mL centrifuge tube, and stored at −80° C.
1) 160 μL of acetonitrile was added to 40 μL of the plasma sample for precipitation, and then the mixture was centrifuged for 5 to 20 minutes at 3500×g.
2) 90 μL of acetonitrile containing internal standard (100 ng/mL) was added to 30 μL of the plasma and brain homogenate sample for precipitation, and then the mixture was centrifuged for 8 minutes at 13000 rpm.
3) 70 μL of water was added to 70 μL of the treated supernatant and mixed by vortex for 10 minutes. 20 μL of the supernatant was taken to analyze the concentration of the test compound by LC/MS/MS. LC/MS/MS analytical instrument: AB Sciex API 4000 Qtrap.
• Liquid chromatography condition: Shimadzu LC-20AD pump • Chromatographic column: Agilent ZORBAX XDB-C18 (50×2.1 mm, […]); Mobile phase: Eluent A was 0.1% formic acid in water, and Eluent B was acetonitrile • Flow rate: 0.4 mL/min • Elution time: 0-4.0 minutes, the eluent is as follows:
The main parameters of pharmacokinetics were calculated by WinNonlin 6.1.

[2] = Study on the crystal form of salt of compound (crystallization with counter ion acids); format: physicochemical; conditions: volatilization method
Procedure: To identify which counter ion acids can form crystal form of salt of compound by selecting different counter ion acids according to suitable crystallization methods.
1 mL of the solution was taken into a glass bottle, and different counter ion acids (molar reaction ratio of base: acid=1:1.2) were added, and then the glass bottle was opened at room temperature to volatile solvent. The amorphous or oily was pulped with 200 μL of ethyl acetate.
1) 10 mg of crystal form B of free base was weighed, and 200 μL of methanol solvent was added, and counter ion acid (molar reaction ratio of base: acid=1:1.2) was added respectively at 25° C.
2) 85 mg of crystal form B of free base was weighed, and ethyl acetate was added to produce a clear solution. Different counter ion acids (molar reaction ratio of base: acid=1:1.2) were added respectively at 25° C.

Peak time tmax ([1]; Brain) [h] | Peak time tmax ([1]; Plasma) [h] | Phenomenon after the addition of acid ([2]; crystal form B of free base in tetrahydrofuran, base: acid=1:1.2) | Results ([2]; tetrahydrofuran volatilized at room temperature) | Compound
1 | 0.5 | – | – | O=C(N[C@H]1C[C@H](CCN2CCN(c3cccc(Cl)c3Cl)CC2)C1)c1cccc2ncccc12 [Example 19A, N-(trans-3-(2-(4-(2,3-dichlorophenyl)piperazin-1-yl)ethyl)cyclobutyl)quinoline-5-carboxamide]
1 | 0.5 | – | – | O=C(NC1CC(CCN2CCN(c3cccc(Cl)c3Cl)CC2)C1)c1ncco1 (centres unmarked) [Example 12, N-(3-(2-(4-(2,3-Dichlorophenyl)piperazin-1-yl)ethyl)cyclobutyl)oxazole-2-carboxamide]
1 | 0.5 | – | – | O=C(N[C@H]1C[C@@H](CCN2CCN(c3cccc(Cl)c3Cl)CC2)C1)c1ncco1 [Example 12B, N-(Cis-3-(2-(4-(2,3-dichlorophenyl)piperazin-1-yl)ethyl)cyclobutyl)oxazole-2-carboxamide]
1 | 0.5 | – | – | O=C(NC1CC(CCN2CCN(c3cccc(Cl)c3Cl)CC2)C1)c1nccs1 (centres unmarked) [Example 7, N-(3-(2-(4-(2,3-Dichlorophenyl)piperazin-1-yl)ethyl)cyclobutyl)thiazole-2-carboxamide]
– | – | Clear | Oil or gel | Br [1.0M hydrobromic acid (in methanol)]
1 | 1 | – | – | O=C(NC1CC(CCN2CCCN(c3cccc(Cl)c3Cl)CC2)C1)c1ccco1 (centres unmarked) [Example 25, N-(3-(2-(4-(2,3-Dichlorophenyl)-1,4-diazepan-1-yl)ethyl)cyclobutyl)furan-2-carboxamide]

Compound | Peak time tmax ([1]; Brain) [h] | Peak time tmax ([1]; Plasma) [h] | Phenomenon after the addition of acid ([2]; crystal form B of free base in tetrahydrofuran, base: acid=1:1.2) | Results ([2]; tetrahydrofuran volatilized at room temperature)
O=C(N[C@H]1C[C@H](CCN2CCN(c3cccc(Cl)c3Cl)CC2)C1)c1ncco1 [Example 12A, N-(Trans-3-(2-(4-(2,3-dichlorophenyl)piperazin-1-yl)ethyl)cyclobutyl)oxazole-2-carboxamide] | 1 | 0.5 | – | –
